The values that follow come from US10683269B2 (MISSION THERAPEUTICS LIMITED, priority 2016, dated 2020).

pIC50: −log10 of the molar value.

The target in the experiment is T1, USP7 (Homo sapiens, UniProt Q93009).
T1 construct: The USP7 construct was PCR amplified and cloned into a pFLAG-CMV-6a vector (Sigma-Aldrich) with an N-terminal FLAG tag; made in house; host or cells: HEK293T
T1 sequence (Q93009 whole entry): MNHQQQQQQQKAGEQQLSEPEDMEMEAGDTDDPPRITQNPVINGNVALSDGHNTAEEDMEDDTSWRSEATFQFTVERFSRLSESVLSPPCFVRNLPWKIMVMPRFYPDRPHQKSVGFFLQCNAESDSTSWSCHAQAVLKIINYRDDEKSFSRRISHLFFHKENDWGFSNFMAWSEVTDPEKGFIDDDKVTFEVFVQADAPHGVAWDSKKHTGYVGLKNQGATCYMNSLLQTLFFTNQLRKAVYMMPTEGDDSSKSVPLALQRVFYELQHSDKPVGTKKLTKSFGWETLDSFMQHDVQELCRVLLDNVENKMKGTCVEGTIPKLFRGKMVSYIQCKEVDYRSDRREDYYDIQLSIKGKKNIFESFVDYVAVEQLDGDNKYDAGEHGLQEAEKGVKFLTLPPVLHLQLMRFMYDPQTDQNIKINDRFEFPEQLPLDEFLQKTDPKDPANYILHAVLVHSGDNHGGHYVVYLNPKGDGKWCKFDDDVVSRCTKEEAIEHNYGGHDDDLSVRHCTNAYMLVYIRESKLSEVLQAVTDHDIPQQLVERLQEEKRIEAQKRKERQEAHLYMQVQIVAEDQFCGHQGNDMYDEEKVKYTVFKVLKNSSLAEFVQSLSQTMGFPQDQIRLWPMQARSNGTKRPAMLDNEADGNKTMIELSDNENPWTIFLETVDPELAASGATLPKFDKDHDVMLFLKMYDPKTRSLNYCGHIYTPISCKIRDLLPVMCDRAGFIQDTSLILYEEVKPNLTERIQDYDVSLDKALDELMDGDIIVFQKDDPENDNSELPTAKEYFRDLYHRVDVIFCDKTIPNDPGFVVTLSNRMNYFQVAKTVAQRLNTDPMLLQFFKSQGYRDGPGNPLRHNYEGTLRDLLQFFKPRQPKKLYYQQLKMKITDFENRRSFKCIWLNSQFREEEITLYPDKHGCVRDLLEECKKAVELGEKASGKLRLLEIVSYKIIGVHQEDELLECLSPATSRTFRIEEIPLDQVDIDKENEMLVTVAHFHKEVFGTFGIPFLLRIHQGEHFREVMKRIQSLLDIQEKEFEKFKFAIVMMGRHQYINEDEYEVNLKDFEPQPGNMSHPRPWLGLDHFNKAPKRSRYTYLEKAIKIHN
Briefly: USP7 biochemical IC50 assay (fluorescence polarisation, TAMRA labelled peptide linked to ubiquitin via an iso-peptide bond). To be noted: 30 min pre-incubation of enzyme and compound, read after 2 hr incubation at room temperature, read-out: IC50 range. The procedure, abridged: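 Fluorescence polarisation at 540 nm excitation/590 nm emission, read immediately and after 2 hr at room temperature, following addition of 50 nM TAMRA-labelled iso-peptide ubiquitin substrate.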
In general, pIC50 refers to the negative decadic logarithm of the IC50, by convention in mol/L. Consider `CN1CCOC(CNc2nc3c(c(-c4ccccc4)n2)CN(C#N)C3)C1` (single isomer, unassigned) [Example 153, 2-(((4-methylmorpholin-2-yl)methyl)amino)-4-phenyl-5,7-dihydro-6H-pyrrolo[3,4-d]pyrimidine-6-carbonitrile], for which the pIC50 is greater than 6.00.

As to `N#CN1Cc2nc(NCCO)nc(-c3ccccc3)c2C1` [Example 120, 2-((2-hydroxyethyl)amino)-4-phenyl-5,7-dihydro-6H-pyrrolo[3,4-d]pyrimidine-6-carbonitrile], the pIC50 is 5.00 to 6.00.

In the case of `Cn1nccc1C(=O)Nc1cc2c(c(-c3ccccc3)c1)CN(C#N)C2` [Example 39, N-(2-cyano-7-phenylisoindolin-5-yl)-1-methyl-1H-pyrazole-5-carboxamide], the negative-log IC50 (pIC50) is 5.00 to 6.00. The figure for `N#CN1Cc2nc(NCCO)nc(-c3cccc(N4CCCC4=O)c3)c2C1` [Example 291, 2-((2-hydroxyethyl)amino)-4-(3-(2-oxopyrrolidin-1-yl)phenyl)-5,7-dihydro-6H-pyrrolo[3,4-d]pyrimidine-6-carbonitrile] is greater than 6.00; for `CC(C)N1CCOC(C(=O)Nc2cc3c(c(-c4ccccc4)c2)CN(C#N)C3)C1` (stereo not shown) [Example 55, N-(2-cyano-7-phenylisoindolin-5-yl)-4-isopropylmorpholine-2-carboxamide] it is greater than 6.00; for `Cn1nccc1CNc1nc2c(c(-c3cccc(N4CCCC4=O)c3)n1)CN(C#N)C2` [Example 290, 2-(((1-methyl-1H-pyrazol-5-yl)methyl)amino)-4-(3-(2-oxopyrrolidin-1-yl)phenyl)-5,7-dihydro-6H-pyrrolo[3,4-d]pyrimidine-6-carbonitrile] it is 5.00 to 6.00.

As for `N#CN1Cc2nc(N)nc(N3CCC(Oc4ccccc4)CC3)c2C1` [Example 207, 2-amino-4-(4-phenoxypiperidin-1-yl)-5,7-dihydro-6H-pyrrolo[3,4-d]pyrimidine-6-carbonitrile], the pIC50 was 4.52 to 5.00.

As to `N#Cc1ccc(N2CCOC2=O)cc1-c1cccc2c1CN(C#N)C2` [Example 298, 4-(2-cyano-5-(2-oxooxazolidin-3-yl)phenyl)isoindoline-2-carbonitrile], the negative-log IC50 (pIC50) was 5.00 to 6.00.

As for `N#CN1Cc2cccc(NC(=O)c3cccc(NC(=O)C4CC4)c3)c2C1` [Example 80, N-(2-cyanoisoindolin-4-yl)-3-(cyclopropanecarboxamido)benzamide], the pIC50 was 5.00 to 6.00. The figure for `CC(C)(O)CNc1cc2c(c(-c3ccc(C#N)cc3)c1)CN(C#N)C2` [Example 287, 4-(4-cyanophenyl)-6-((2-hydroxy-2-methylpropyl)amino)iso-indoline-2-carbonitrile] is 5.00 to 6.00.
